Earlier results in US20020054924A1, “Novel compositions derived from cranberry and grapefruit and therapeutic uses therefor” (priority 2000, published 2002).

System: cholesterol
Conditions: chickens

In the case of tocotrienol [Extract T3], the “hypocholesterolemic effect compared with Lovastatin” value is listed as “twice as effective as Lovastatin™”.
